From patent US20220395443A1, “Oral Care Compositions and Methods” (Colgate-Palmolive Company, priority 2021, published 2022)
Read-outs that look alike come from different tables or passages of the source.

Tests used:
salivary biofilms = assay: In vitro oral biofilm model, simple solutions: total NO3/NO2 in supernatant (colorimetric kit); type: cell-based, human; conditions: for NO3/NO2 (nmole per sample): biofilm supernatant, 2 min treatments twice daily, 5 days, 3% KNO3 and/or 1.5% L-arginine, all with 1.7% TSPP, untreated 5.93; for NO3/NO2 output (in words): repeated treatment with simple solutions
Method: (§1) An in vitro model for oral biofilms is treated with either 3% KNO3 or 1.5% L-arginine alone or in combination as simple solutions. Whole human saliva was used to inoculate sterile hydroxyapatite discs held in a vertical position using a specially designed steel lid as indicated in Kumar et al. (2019). Biofilms in Human Diseases: Treatment and Control Nature, the contents of which are incorporated herein by reference in their entirety.
(§2) Following 6 h of inoculum, biofilms are treated for 2 min with simple solutions, rinsed and returned to fresh, filter-sterilized saliva. Biofilms were treated 2 times per day, with approximately 6 h between treatments for the subsequent 3 days. On the fifth day, biofilms are treated one time in the morning and then harvested approximately 3 h after treatment by sonication. Bacterial pellets are frozen and later subjected to DNA extraction and sequencing of the V3-V4 region of the 16 s ribosomal RNA subunit in order to identify the relative abundance of bacteria present in each sample to the genus level. The final supernatants were also retained, filter-sterilized and tested for total nitrate/nitrite concentrations to determine if any changes in nitrate production could be detected from the biofilm communities.
(§3) For these studies, all solutions were made fresh in dH2O and used within 1 h of being made. Solutions were prepared by weight to contain each of the following: 3% KNO3, 1.5% L-arginine, both by weight of the solution, or no active. Additionally, all solutions contained 1.7% TSPP for additional stabilization. Solution pH values were not adjusted before treatment.
At the end of the experiment, filter sterilized samples were tested for total NO3/NO2 using a colorimetric nitrate/nitrite assay kit (Sigma). Due to low sample volumes, samples were only tested for total NO3/NO2.

[1] = system: Haemophilus parainfluenzae; assay: In vitro oral biofilm model, simple solutions: 16S V3-V4 sequencing; type: cell-based; conditions: simple solutions: 3% KNO3 and/or 1.5% L-arginine; untreated (PBS) 0.14
Method: as §1, §2, §3
(§4) The composition of the microbiome of each sample is studied to assess the bacterial community shifts induced by treatment with: potassium nitrate alone, L-arginine alone, or potassium nitrate and L-arginine in combination.

[2] = system: Neisseria flavescens subflava; assay: as above; type: cell-based; conditions: simple solutions: 3% KNO3 and/or 1.5% L-arginine; untreated (PBS) 1.23
Method: as §1, §2, §3, §4

Rothia dentocariosa = assay: as above; type: cell-based
Method: as §1, §2, §3, §4

[3] = system: Prevotella melaninogenica; assay: as above; type: cell-based; conditions: simple solutions: 3% KNO3 and/or 1.5% L-arginine; untreated (PBS) 0.31
Method: as §1, §2, §3, §4

Veillonella parvula = assay: as above; type: cell-based; conditions: simple solutions: 3% KNO3 and/or 1.5% L-arginine; untreated (PBS) 4.59
Method: as §1, §2, §3, §4

Oral biofilms = assay: Measurement of nitrite in oral biofilms after potassium nitrate challenge; type: cell-based, human; conditions: treated twice a day for five days with simple solutions; total nitrite after five-minute challenge with 5% potassium nitrate; untreated 0.11
Method: Oral biofilms are grown on hydroxyapatite discs in saliva as discussed in the process detailed in Example 3. Over the course of five days, the biofilms receive treatment twice a day. Specifically, the biofilms receive treatment with samples containing simple solutions of water and 3% (by wt.) potassium nitrate and 5% (by wt.) arginine or a simple solution of water and 3% (by wt.) potassium nitrate alone. Following treatment, there is measurement of total nitrite (mg/L) in the biofilms following a five-minute challenge with 5% potassium nitrate.

[4] = system: Haemophilus parainfluenzae; assay: Growth of nitrate reducing species in optical density assay; type: cell-based; conditions: for Effect on growth of Haemophilus parainfluenzae (in words): 1.5% KNO3 and 0.75% L-arginine alone or in combination, 26 h; for Optical Density (610 nm): pure culture, 0.75% L-arginine, 0.75% KNO3 (so in the source), or 1.5% KNO3 + 0.75% L-arginine by wt. of solution added, measured every two hours for 26 h, control 1.02
Method: The impact of 1.5% KNO3 and 0.75% L-arginine alone or in combination on the growth of one known nitrate reducing species, Haemophilus parainfluenzae, is studied. Pure cultures of each species are grown in the presence of the compounds. Note, the wt. % of the potassium nitrate and L-arginine is relative to the total weight of the solution added to the culture. The growth is monitored by measuring the optical density at 610 nm every two hours for 26 h.

`O=[N+]([O-])[O-].[K+]` [KNO3, potassium nitrate] was tested, and the “NO3/NO2 (nmole per sample)” value (salivary biofilms) was 6.00 nmole per sample, the “NO3/NO2 output (in words)” value (salivary biofilms) was “small increases” and the “Relative abundance of Haemophilus parainfluenzae” value [1] was 0.04 relative units of abundance. The “Relative abundance of Neisseria flavescens subflava” value [2] was 0.05 relative units of abundance, the “Relative abundance of Rothia dentocariosa” value (Rothia dentocariosa) was 0 relative units of abundance and the “Relative abundance of Prevotella melaninogenica” value [3] was 0.67 relative units of abundance. For the same compound, the “Relative abundance of Veillonella parvula” value (Veillonella parvula) was 0.78 relative units of abundance, the “Biofilm Nitrite Measurement” value (Oral biofilms) was 0.8 mg/L and the “Effect on growth of Haemophilus parainfluenzae (in words)” value [4] was “no effect on the growth”. The “Optical Density (610 nm)” value [4] was 0.99.

`N=C(N)NCCC[C@H](N)C(=O)O` [L-arginine] was tested, and the “NO3/NO2 (nmole per sample)” value (salivary biofilms) was 6.01 nmole per sample, the “NO3/NO2 output (in words)” value (salivary biofilms) was “small increases” and the “Relative abundance of Haemophilus parainfluenzae” value [1] was 0.83 relative units of abundance. For the same compound, the “Relative abundance of Neisseria flavescens subflava” value [2] was 0.54 relative units of abundance, the “Relative abundance of Rothia dentocariosa” value (Rothia dentocariosa; simple solutions: 3% KNO3 and/or 1.5% L-arginine, untreated (PBS) 0.02) was 0.02 relative units of abundance and the “Relative abundance of Prevotella melaninogenica” value [3] was 0.07 relative units of abundance. The “Relative abundance of Veillonella parvula” value (Veillonella parvula) was 3.28 relative units of abundance, the “Effect on growth of Haemophilus parainfluenzae (in words)” value [4] was “slightly reduce growth” and the “Optical Density (610 nm)” value [4] was 0.65.
